Measured values taken from patent US5554637A, “Use of leflunomide for inhibiting interleukin 1 alpha” (priority 1993, dated 1996).
“Also recorded” adds a separate entry of the source.

Assays:
IL1alpha = IL1alpha synthesis and liberation in lipopolysaccharide-stimulated mononuclear cells from human blood (sandwich enzyme immuno test); assay type: cell-based; conditions: for activity at 10 µM: concentration 0.01 mmol/l; for activity at 100 µM: concentration 0.1 mmol/l; for effect on the IL1alpha level: summary in words of Table 1
Protocol: The mononuclear cells from freshly isolated human citrate blood were enriched in accordance with known standard procedures (see Tiku et al., J. Immunol. 136/10 (1986) 3677):
10 ml of freshly prepared human citrate blood were carefully underlaid with 15 ml of Lynnphoprep^(R) (Molter GmbH, Heidelberg) and then centrifuged at 400 ×g for 40 min. at 20° C. The cell fraction which was visible as a white ring at the phase boundary was withdrawn with the aid of a syringe, diluted 1:1 (v/v) with PM-16 buffer (from Serva Feinbiochemica GmbH & Co. KG, Heidelberg) and then centrifuged, as above, for 10 min. The supernatant was washed with 10 ml of RPMI 1640 buffer (Gibco, Berlin) to which 300 mg/1 L-glutamine had previously been added. The washed cell fraction was taken up in 1 ml of RPMI 1640 to which 300 mg/1 L-glutamine, 25 mmol/1 HEPES (Gibco, Berlin), […] streptomycin and […] penicillin had previously been added. Using a cell counter (type IT, from Coulter Diagnostics, Krefeld), the cell suspension, which is composed of about 90% lymphocytes and 10% monocytes, was adjusted to about 5 million cells/mi. Cell viability was monitored before and after the inhibition experiments using the known lactate dehydrogenase method. In this case, no change in viability was observed.
The synthesis and liberation of cellular IL1alpha was induced by adding a solution of 500 ng of lipopolysaccharide (Salmonella abortus equi, Sigma GmbH, Deisenhofen) in 0.01 ml of dimethyl sulfoxide/water (1:10, v/v) to 0.48 ml of the above-described cell fraction. At the same time, a solution of leflunomide or leflunomide metabolite in 0.01 ml of dimethylsulfoxide (for the final concentration in each case, see Tab. 1) was added to the cell fraction and the mixture was left at 37° C. for 20 h in a commercially available incubator. After cooling down to 0° C., the samples were centrifuged for 1 min. in a bench centrifuge and in each case 0.025 ml aliquots of the supernatant were examined for their IL1alpha content using a "sandwich" enzyme immuno test kit (from Biermann GmbH, Bad Nauheim) in accordance with the manufacturer's instructions. The control values were determined without the addition of leflunomide or its metabolites and set at 100%. In particular, any possible influence of dimethyl sulfoxide on the IL1alpha level was excluded by appropriate comparative measurements.

cytokines = test: synthesis and liberation of cytokines from human blood cells; assay type: cell-based; conditions: in words
Protocol: The cell fraction which was visible as a white ring at the phase boundary was withdrawn with the aid of a syringe, diluted 1:1 (v/v) with PM-16 buffer (from Serva Feinbiochemica GmbH & Co. KG, Heidelberg) and then centrifuged, as above, for 10 min. […] Using a cell counter (type IT, from Coulter Diagnostics, Krefeld), the cell suspension, which is composed of about 90% lymphocytes and 10% monocytes, was adjusted to about 5 million cells/mi. Cell viability was monitored before and after the inhibition experiments using the known lactate dehydrogenase method.
At the same time, a solution of leflunomide or leflunomide metabolite in 0.01 ml of dimethylsulfoxide (for the final concentration in each case, see Tab. 1) was added to the cell fraction and the mixture was left at 37° C. for 20 h in a commercially available incubator. […] The control values were determined without the addition of leflunomide or its metabolites and set at 100%.

[1] = metabolism of leflunomide under the conditions of the cell experiment (HPLC); assay type: in vitro ADME, human; conditions: human, mononuclear cells; mononuclear cell fraction, incubation conditions of Example 1, HPLC
mononuclear cells = test: as above; assay type: in vitro ADME, human; conditions: in words; isolated human mononuclear cells
[2] = Homo sapiens, control without substance = 100%, LPS 500 ng, 37° C., 20 h, read-out: IL1alpha in the supernatant, % +/- standard deviation

Row | Structure (SMILES) | activity at 10 µM (IL1alpha; [2]) | activity at 100 µM (IL1alpha; [2]) | effect on the IL1alpha level (IL1alpha) | effect on the synthesis and liberation of cytokines from human blood cells (cytokines) | activity at 0.1 µM (IL1alpha; Homo sapiens, concentration 0.0001 mmol/l, control without substance = 100%, LPS 500 ng, 37° C., 20 h, read-out: IL1alpha in the supernatant, % +/- standard deviation) | activity at 5 µM (IL1alpha; Homo sapiens, concentration 0.005 mmol/l, control without substance = 100%, LPS 500 ng, 37° C., 20 h, read-out: IL1alpha in the supernatant, % +/- standard deviation) | activity at 50 µM (IL1alpha; Homo sapiens, concentration 0.05 mmol/l, control without substance = 100%, LPS 500 ng, 37° C., 20 h, read-out: IL1alpha in the supernatant, % +/- standard deviation) | half-life [1] | metabolism of leflunomide under the experimental conditions (mononuclear cells)
1 | C/C(O)=C(\C#N)C(=O)Nc1ccc(C(F)(F)F)cc1 [Leflunomide metabolite, N-(4-trifluoromethylphenyl)-2-cyano-3-hydroxycrotonamide] | 100 ± 5% | 98 ± 7% | practically no effect on the IL1alpha level | does not exhibit this advantageous effect |  |  |  |  | 
2 | Cc1oncc1C(=O)Nc1ccc(C(F)(F)F)cc1 [Leflunomide, N-(4-trifluoromethylphenyl)-5-methylisoxazole-4-carboxamide] | 54 ± 5% | 22 ± 5% | clearly lowered | strong inhibitory effect | 83 ± 16% | 62% | 22 ± 2% | ~600 min | did not, to any appreciable extent, metabolize the leflunomide to its metabolites; also recorded: metabolized only very slowly; also recorded: no appreciable metabolism
